# Measured values as given in publication PMC8359193, “Summary of reference chemicals evaluated by the fish short‐term reproduction assay, OECD TG229, using Japanese Medaka, Oryzias latipes” (Journal of Applied Toxicology, 2021).
# “Also recorded” adds a separate entry of the source.
# Tests used:
# Japanese medaka = conditions: MMT, ref Flynn et al. (2017), cited from earlier work
# [1] = tested on: Japanese medaka (Oryzias latipes); assay: Fish short-term reproduction assay (FSTRA, OECD TG229), 21-day flow-through exposure; conditions: for Fertility rate (%) / Mortality (%) Female / Mortality (%) Male / Number of fertilized eggs / Number of total eggs / SSC Female / SSC Male / VTG (ng/mg of liver) Female / VTG (ng/mg of liver) Male: 21 days; for GSI Female / GSI Male / HSI Female / HSI Male / Length Female / Length Male / Weight Female / Weight Male: at completion of exposure
# Method in brief: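 Run to OECD TG229: mature NIES-R medaka pairs (3♂/3♀ per vessel, 4 vessels per treatment plus dilution water control) were dosed by continuous flow-through for 21 days. Test concentrations were spaced 2- to 5-fold. Daily spawned eggs were counted under the microscope for fertilized versus unfertilized.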
# medaka ARβ (mARβ) = medaka ARβ (mARβ) (Oryzias latipes, UniProt D1MV73); assay: Medaka ARβ reporter gene assay (RGA), antagonist assay with 50 nM 11KT, HepG2 cells; format: cell-based, Japanese medaka (Oryzias latipes); conditions: 50 nM 11KT-induced mARβ activity
# medaka ARβ (mARβ), sequence (D1MV73 entry or part of it): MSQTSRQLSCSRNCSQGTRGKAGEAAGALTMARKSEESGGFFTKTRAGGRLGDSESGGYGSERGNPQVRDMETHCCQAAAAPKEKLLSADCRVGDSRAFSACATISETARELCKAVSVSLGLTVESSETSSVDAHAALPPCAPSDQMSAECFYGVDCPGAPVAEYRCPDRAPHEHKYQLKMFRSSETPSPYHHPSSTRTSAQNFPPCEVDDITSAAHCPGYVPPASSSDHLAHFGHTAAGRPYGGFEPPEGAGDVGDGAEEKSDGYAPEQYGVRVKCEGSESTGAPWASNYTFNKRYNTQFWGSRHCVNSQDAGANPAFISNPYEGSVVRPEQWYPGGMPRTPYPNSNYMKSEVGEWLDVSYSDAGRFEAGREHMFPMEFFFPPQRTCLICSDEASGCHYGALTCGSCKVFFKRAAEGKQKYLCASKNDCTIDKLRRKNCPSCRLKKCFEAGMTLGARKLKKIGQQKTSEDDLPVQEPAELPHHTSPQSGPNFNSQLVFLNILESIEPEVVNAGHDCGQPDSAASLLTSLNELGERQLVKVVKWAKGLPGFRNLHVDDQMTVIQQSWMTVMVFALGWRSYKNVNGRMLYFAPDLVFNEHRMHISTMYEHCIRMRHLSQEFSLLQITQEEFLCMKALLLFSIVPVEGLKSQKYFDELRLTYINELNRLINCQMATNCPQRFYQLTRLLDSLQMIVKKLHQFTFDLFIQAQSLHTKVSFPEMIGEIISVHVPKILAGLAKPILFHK
# Protocol: To support interpretation of the biological effects observed in the FSTRA studies, in vitro RGAs using medaka Esr1 (mEsr1) and medaka ARβ (mARβ) were performed for the 16 test chemicals. In the present study, Esr1 and ARβ, which are ancestral subtypes among Esrs and ARs in Japanese medaka, were selected based on the phylogenetical analyses of Esr and AR with each receptor RGAs (Ogino et al., [2016], [2018]; Tohyama et al., [2015]).
# The mARβ RGA in which the agonist and the antagonist assays were performed as same as the mEsr1 RGA was carried out according to the methods previously reported by Lange et al. ([2015]). For the assays, human liver cancer cell line, HepG2, was used as the host cells, and mARβ/pcDNA3.1, MMTV‐Luc, and pRL‐TK‐Rlu were used as mARβ expression vector, reporter vector, and internal control vector, respectively. Other materials and methods, for example, operating procedure, reagents, and incubation conditions, were almost the same as the mEsr1 RGA previously described beside that 11KT (Sigma‐Aldrich, purity 99.0%), a main AR ligand in fish, was competitively spiked at 50 nM into the test medium with test chemicals in antagonist assay. In the agonist and the antagonist assays, 11KT and 2‐hydroxyflutamide (2HFLT; Sigma‐Aldrich, purity 98.5%) were used as positive controls, respectively.
# Effect concentrations, that is, EC50 (a half maximal effective concentration) in the agonist assay and IC50 (a half maximal inhibitory concentration) in the antagonist assay, were estimated by nonlinear curve fitting (e.g., three parameters logistic regression curve) using GraphPad Prism (GraphPad Software Inc., La Jolla, CA, USA).
# fathead minnow = tested on: fathead minnow; set-up: method as in US EPA, 2007; conditions: three participating laboratories; ref US EPA, 2007; cited from earlier work
smiles,measurement,setting,value
"C=CC1(C)OC(=O)N(c2cc(Cl)cc(Cl)c2)C1=O (centres unmarked) [VCZ, Vinclozolin]",LOEC on SSC in females,Japanese medaka,33 µg/L
same,LOEC on reproduction (fecundity and/or fertility),Japanese medaka; long-term exposure,253 µg/L
same,"effect on fertility rate, in words",[1]; 21-day exposure,significant decrease; also recorded: significant reduction
same,Fertility rate (%),[1]; measured conc. 14.5 μg/L,95%
same,Mortality (%) Female,[1]; measured conc. 14.5 μg/L,0%
same,Mortality (%) Male,[1]; measured conc. 14.5 μg/L,0%
same,Number of fertilized eggs,[1]; measured conc. 14.5 μg/L,22
same,Number of total eggs,[1]; measured conc. 14.5 μg/L,24 ± 2.6 /female/day
same,SSC Female,[1]; measured conc. 14.5 μg/L,0 ± 0
same,SSC Male,[1]; measured conc. 14.5 μg/L,108 ± 18
same,VTG (ng/mg of liver) Female,[1]; measured conc. 14.5 μg/L,886 ± 300 ng/mg of liver
same,VTG (ng/mg of liver) Male,[1]; measured conc. 14.5 μg/L,7.5 ± 7.2 ng/mg of liver
same,GSI Female,[1]; measured conc. 14.5 μg/L,11.8%
same,GSI Male,[1]; measured conc. 14.5 μg/L,1.09%
same,HSI Female,[1]; measured conc. 14.5 μg/L,4.6%
same,HSI Male,[1]; measured conc. 14.5 μg/L,1.7%
same,Length Female,[1]; measured conc. 14.5 μg/L,35.2 mm
same,Length Male,[1]; measured conc. 14.5 μg/L,34.8 mm
same,Weight Female,[1]; measured conc. 14.5 μg/L,447 mg
same,Weight Male,[1]; measured conc. 14.5 μg/L,455 mg
same,Fertility rate (%),[1]; measured conc. 43.9 μg/L,94%
same,Mortality (%) Female,[1]; measured conc. 43.9 μg/L,0%
same,Mortality (%) Male,[1]; measured conc. 43.9 μg/L,0%
same,Number of fertilized eggs,[1]; measured conc. 43.9 μg/L,22
same,Number of total eggs,[1]; measured conc. 43.9 μg/L,23 ± 5.3 /female/day
same,SSC Female,[1]; measured conc. 43.9 μg/L,0 ± 0
same,SSC Male,[1]; measured conc. 43.9 μg/L,95 ± 16
same,VTG (ng/mg of liver) Female,[1]; measured conc. 43.9 μg/L,816 ± 278 ng/mg of liver
same,VTG (ng/mg of liver) Male,[1]; measured conc. 43.9 μg/L,10 ± 12 ng/mg of liver
same,GSI Female,[1]; measured conc. 43.9 μg/L,10.7%
same,GSI Male,[1]; measured conc. 43.9 μg/L,1.24%
same,HSI Female,[1]; measured conc. 43.9 μg/L,4.7%
same,HSI Male,[1]; measured conc. 43.9 μg/L,1.7%
same,Length Female,[1]; measured conc. 43.9 μg/L,35.0 mm
same,Length Male,[1]; measured conc. 43.9 μg/L,34.4 mm
same,Weight Female,[1]; measured conc. 43.9 μg/L,445 mg
same,Weight Male,[1]; measured conc. 43.9 μg/L,427 mg
same,Fertility rate (%),[1]; measured conc. 137 μg/L,90%
same,Mortality (%) Female,[1]; measured conc. 137 μg/L,0%
same,Mortality (%) Male,[1]; measured conc. 137 μg/L,0%
same,Number of fertilized eggs,[1]; measured conc. 137 μg/L,19
same,Number of total eggs,[1]; measured conc. 137 μg/L,21 ± 4.3 /female/day
same,SSC Female,[1]; measured conc. 137 μg/L,0 ± 0
same,SSC Male,[1]; measured conc. 137 μg/L,108 ± 16
same,VTG (ng/mg of liver) Female,[1]; measured conc. 137 μg/L,651 ± 217 ng/mg of liver
same,VTG (ng/mg of liver) Male,[1]; measured conc. 137 μg/L,3.6 ± 2.3 ng/mg of liver
same,GSI Female,[1]; measured conc. 137 μg/L,10.6%
same,GSI Male,[1]; measured conc. 137 μg/L,1.40%
same,HSI Female,[1]; measured conc. 137 μg/L,4.5%
same,HSI Male,[1]; measured conc. 137 μg/L,1.5%
same,Length Female,[1]; measured conc. 137 μg/L,34.8 mm
same,Length Male,[1]; measured conc. 137 μg/L,34.4 mm
same,Weight Female,[1]; measured conc. 137 μg/L,437 mg
same,Weight Male,[1]; measured conc. 137 μg/L,425 mg
same,Fertility rate (%),[1]; measured conc. 453 μg/L,84%
same,Mortality (%) Female,[1]; measured conc. 453 μg/L,0%
same,Mortality (%) Male,[1]; measured conc. 453 μg/L,0%
same,Number of fertilized eggs,[1]; measured conc. 453 μg/L,17
same,Number of total eggs,[1]; measured conc. 453 μg/L,20 ± 5.9 /female/day
same,SSC Female,[1]; measured conc. 453 μg/L,0 ± 0
same,SSC Male,[1]; measured conc. 453 μg/L,102 ± 17
same,VTG (ng/mg of liver) Female,[1]; measured conc. 453 μg/L,111 ± 92 ng/mg of liver
same,VTG (ng/mg of liver) Male,[1]; measured conc. 453 μg/L,3.9 ± 8.6 ng/mg of liver
same,GSI Female,[1]; measured conc. 453 μg/L,12.0%
same,GSI Male,[1]; measured conc. 453 μg/L,1.46%
same,HSI Female,[1]; measured conc. 453 μg/L,4.7%
same,HSI Male,[1]; measured conc. 453 μg/L,1.8%
same,Length Female,[1]; measured conc. 453 μg/L,34.8 mm
same,Length Male,[1]; measured conc. 453 μg/L,34.9 mm
same,Weight Female,[1]; measured conc. 453 μg/L,455 mg
same,Weight Male,[1]; measured conc. 453 μg/L,455 mg
same,"effect on fecundity (number of total eggs), in words","[1]; within the test concentrations, 21-day exposure",No effect
same,mARβ antagonist activity (in words),medaka ARβ (mARβ),inhibited
same,nominal concentration with significant decrease in nuptial tubercle number in males,fathead minnow,900 µg/L
